Source: PubChem BioAssay (NCI)
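Interpolation was linear, between the two tested concentrations surrounding the appropriate level; five concentrations were tested over 48 hours in 96-well plates. TGI denotes the concentration required for complete inhibition of growth.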

Assays:
Experiment in all cases: growth of human tumour cells (NCI), 48 h
[1] = test system: 786-0 renal
[2] = test system: A498 renal
[3] = test system: A549 NSCLC
[4] = test system: ACHN renal
[5] = test system: BT-549 breast
[6] = test system: CAKI-1 renal
[7] = test system: CCRF-CEM leukemia
[8] = test system: COLO 205 colon
[9] = test system: DU-145 prostate
[10] = test system: EKVX NSCLC
[11] = test system: HCC-2998 colon
[12] = test system: HCT-116 colon
[13] = test system: HCT-15 colon
[14] = test system: HL-60(TB) leukemia
[15] = test system: HOP-62 NSCLC
[16] = test system: HS 578T breast
[17] = test system: HT29 colon
[18] = test system: IGROV1 ovarian
[19] = test system: KM12 colon
[20] = test system: LOX IMVI melanoma
[21] = test system: M14 melanoma
[22] = test system: MALME-3M melanoma
[23] = test system: MCF7 breast
[24] = test system: MDA-MB-231 breast
[25] = test system: MDA-MB-435
[26] = test system: MDA-N
[27] = test system: MOLT-4 leukemia
[28] = test system: NCI-H226 lung
[29] = test system: NCI-H23 lung
[30] = test system: NCI-H460 lung
[31] = test system: NCI-H522 lung
[32] = test system: NCI/ADR-RES ovarian
[33] = test system: OVCAR-3 ovarian
[34] = test system: OVCAR-4 ovarian
[35] = test system: OVCAR-5 ovarian
[36] = test system: OVCAR-8 ovarian
[37] = test system: PC-3 prostate
[38] = test system: RPMI-8226 leukemia
[39] = test system: RXF 393 renal
[40] = test system: SF-268 CNS
[41] = test system: SF-295 CNS
[42] = test system: SF-539 CNS
[43] = test system: SK-MEL-2 melanoma
[44] = test system: SK-MEL-28 melanoma
[45] = test system: SK-MEL-5 melanoma
[46] = test system: SK-OV-3 ovarian
[47] = test system: SN12C renal
[48] = test system: SNB-19 CNS
[49] = test system: SR leukemia
[50] = test system: SW-620 colon
[51] = test system: T-47D breast
[52] = test system: TK-10 renal
[53] = test system: U251 CNS
[54] = test system: UACC-257 melanoma
[55] = test system: UACC-62 melanoma
[56] = test system: DLD-1 colon
[57] = test system: DMS 114 small cell lung
[58] = test system: DMS 273 small cell lung
[59] = test system: HOP-18 NSCLC
[60] = test system: HOP-92 NSCLC
[61] = test system: K-562 leukemia
[62] = test system: KM20L2 colon
[63] = test system: LXFL 529 NSCLC
[64] = test system: M19-MEL melanoma
[65] = test system: UO-31 renal

Question: With `OCCNCCN1CCN(CCCN2c3ccccc3Sc3ccc(C(F)(F)F)cc32)CC1` as the compound, how does the TGI [1] read?
Answer: 31 µM

Question: And the TGI [2]?
Answer: > 100 µM

Question: What about the TGI [3] of the same compound?
Answer: 48.6 µM

Question: And the TGI [4]?
Answer: 43.2 µM

Question: What about the TGI [5] of the same compound?
Answer: > 100 µM

Question: And the TGI [6]?
Answer: > 100 µM

Question: What about the TGI [7] of the same compound?
Answer: > 100 µM

Question: What about the TGI [8] of the same compound?
Answer: 32.4 µM

Question: What about the TGI [9] of the same compound?
Answer: > 100 µM

Question: And the TGI [10]?
Answer: 52.3 µM

Question: What about the TGI [11] of the same compound?
Answer: 44.7 µM

Question: And the TGI [12]?
Answer: 31.7 µM

Question: What about the TGI [13] of the same compound?
Answer: 37.3 µM

Question: And the TGI [14]?
Answer: > 100 µM

Question: What about the TGI [15] of the same compound?
Answer: 38.1 µM

Question: What about the TGI [16] of the same compound?
Answer: 70.1 µM

Question: And the TGI [17]?
Answer: 28.3 µM

Question: What about the TGI [18] of the same compound?
Answer: > 100 µM

Question: And the TGI [19]?
Answer: 45.1 µM

Question: What about the TGI [20] of the same compound?
Answer: 28.5 µM

Question: What about the TGI [21] of the same compound?
Answer: 30.2 µM

Question: And the TGI [22]?
Answer: 45 µM

Question: And the TGI [23]?
Answer: 39.8 µM

Question: What about the TGI [24] of the same compound?
Answer: 35.5 µM

Question: What about the TGI [25] of the same compound?
Answer: 33.7 µM

Question: And the TGI [26]?
Answer: 33.7 µM

Question: And the TGI [27]?
Answer: > 100 µM

Question: And the TGI [28]?
Answer: 49.9 µM

Question: What about the TGI [29] of the same compound?
Answer: 51 µM

Question: What about the TGI [30] of the same compound?
Answer: 44.7 µM

Question: What about the TGI [31] of the same compound?
Answer: 36.6 µM

Question: What about the TGI [32] of the same compound?
Answer: 54.6 µM

Question: And the TGI [33]?
Answer: 40.3 µM

Question: And the TGI [34]?
Answer: 48.8 µM

Question: What about the TGI [35] of the same compound?
Answer: 43.5 µM

Question: What about the TGI [36] of the same compound?
Answer: 31.9 µM

Question: What about the TGI [37] of the same compound?
Answer: 62.1 µM

Question: And the TGI [38]?
Answer: > 100 µM

Question: What about the TGI [39] of the same compound?
Answer: 47.5 µM

Question: What about the TGI [40] of the same compound?
Answer: 44 µM

Question: And the TGI [41]?
Answer: 34.9 µM

Question: What about the TGI [42] of the same compound?
Answer: 34.5 µM

Question: What about the TGI [43] of the same compound?
Answer: 37.5 µM

Question: What about the TGI [44] of the same compound?
Answer: 39.5 µM

Question: And the TGI [45]?
Answer: > 100 µM

Question: What about the TGI [46] of the same compound?
Answer: 77.9 µM

Question: And the TGI [47]?
Answer: 33.9 µM

Question: And the TGI [48]?
Answer: 49.2 µM

Question: What about the TGI [49] of the same compound?
Answer: > 100 µM

Question: And the TGI [50]?
Answer: 35.3 µM

Question: And the TGI [51]?
Answer: 50.4 µM

Question: What about the TGI [52] of the same compound?
Answer: 37.2 µM

Question: And the TGI [53]?
Answer: 35.8 µM

Question: What about the TGI [54] of the same compound?
Answer: 34.6 µM

Question: What about the TGI [55] of the same compound?
Answer: 41.2 µM

Question: How did the TGI [1] turn out when `C#C[C@]1(O)CCCC2=CC(=O)CC[C@@]21C` was run?
Answer: > 100 µM

Question: And the TGI [3]?
Answer: > 100 µM

Question: And the TGI [4]?
Answer: > 100 µM

Question: And the TGI [7]?
Answer: > 100 µM

Question: What about the TGI [8] of the same compound?
Answer: > 100 µM

Question: And the TGI [56]?
Answer: > 100 µM

Question: What about the TGI [57] of the same compound?
Answer: > 100 µM

Question: And the TGI [58]?
Answer: > 100 µM

Question: What about the TGI [10] of the same compound?
Answer: > 100 µM

Question: What about the TGI [11] of the same compound?
Answer: > 100 µM

Question: And the TGI [13]?
Answer: > 100 µM

Question: And the TGI [14]?
Answer: > 100 µM

Question: What about the TGI [59] of the same compound?
Answer: > 100 µM

Question: And the TGI [60]?
Answer: > 100 µM

Question: And the TGI [17]?
Answer: > 100 µM

Question: And the TGI [18]?
Answer: > 100 µM

Question: What about the TGI [61] of the same compound?
Answer: > 100 µM

Question: What about the TGI [19] of the same compound?
Answer: > 100 µM

Question: And the TGI [62]?
Answer: > 100 µM

Question: And the TGI [63]?
Answer: > 100 µM

Question: What about the TGI [21] of the same compound?
Answer: > 100 µM

Question: And the TGI [64]?
Answer: > 100 µM

Question: And the TGI [22]?
Answer: > 100 µM

Question: What about the TGI [27] of the same compound?
Answer: > 100 µM

Question: What about the TGI [28] of the same compound?
Answer: > 100 µM

Question: What about the TGI [29] of the same compound?
Answer: > 100 µM

Question: And the TGI [30]?
Answer: > 100 µM

Question: And the TGI [31]?
Answer: > 100 µM

Question: And the TGI [33]?
Answer: > 100 µM

Question: And the TGI [35]?
Answer: > 100 µM

Question: And the TGI [36]?
Answer: > 100 µM

Question: And the TGI [38]?
Answer: > 100 µM

Question: What about the TGI [39] of the same compound?
Answer: > 100 µM

Question: What about the TGI [40] of the same compound?
Answer: > 100 µM

Question: And the TGI [41]?
Answer: > 100 µM

Question: And the TGI [42]?
Answer: > 100 µM

Question: And the TGI [43]?
Answer: > 100 µM

Question: What about the TGI [44] of the same compound?
Answer: > 100 µM

Question: What about the TGI [45] of the same compound?
Answer: > 100 µM

Question: And the TGI [46]?
Answer: > 100 µM

Question: And the TGI [47]?
Answer: > 100 µM

Question: What about the TGI [48] of the same compound?
Answer: > 100 µM

Question: What about the TGI [49] of the same compound?
Answer: > 100 µM

Question: What about the TGI [50] of the same compound?
Answer: > 100 µM

Question: What about the TGI [52] of the same compound?
Answer: > 100 µM

Question: What about the TGI [53] of the same compound?
Answer: > 100 µM

Question: What about the TGI [54] of the same compound?
Answer: > 100 µM

Question: What about the TGI [65] of the same compound?
Answer: > 100 µM
